Results reported in patent publication US12428370B2, “Haloallylamine dual amine oxidase inhibitors” (Syntara Limited, priority 2020, dated 2025).
Structures can show the parent of a compound that is named as a salt.

Key:
[1] = Pharmacokinetic study in Wistar rats, oral gavage; type: in vivo; conditions: oral gavage at 3 mg/kg, plasma, FIG. 1
Experimental: Pharmacokinetic (PK) studies were carried out at Sundia MediTech Co. Ltd., Shanghai. […] At various times between 15 minutes and 8 hours, blood samples were collected by tail vein bleed. Plasma was analyzed by high performance liquid chromatography-tandem mass spectrometry using a Shimadzu LC30AD HPLC and a QTRAP 5500 mass spectrometer. The time course and basic PK parameters thus obtained are outlined in FIG. 1.

[2] = test system: mdx mice (C57BL/10ScSn-Dmdmdx/J); experiment: Mouse model of Duchenne muscular dystrophy, PXS-5131; type: in vivo; conditions: 6 mg/kg/day oral, 4 weeks, 3 months old mdx mice
Experimental: mdx mice (C57BL/10ScSn-Dmdmdx/J) were obtained from Jackson Laboratories, Maine, US. […] Untreated, age-matched animals were used as controls. The drug was administered using small palatable gelatin pellets prepared with 10% gelatin in 20% sucralose plus food flavoring (Zhang L. Protoc. Exch. 2011, 236) Animals were pre-conditioned to recognize and eat the gelatins with a three-day routine involving overnight fasting followed by exposure of each single animal to the gelatin without the active principle, in the absence of other food. Palatability was further improved by dipping the pellets in corn oil containing trace amounts of almond oil and then breading them with pulverized food pellet.
Muscle function in vivo was assessed for the gastrocnemius muscle, as described by Blaauw B. et al., Hum. Mol. Genet. 2008, 17, 3686-3696. Mice were anesthetized, and electrodes were placed on either side of the sciatic nerve, while the common peroneal nerve was cut. Muscle torque production was measured using a lever system (Aurora Scientific 305B). A lever arm of 2.1 mm was used for all groups, as no major differences in body weight between various groups was observed. Eccentric contractions were performed by moving the foot backward at a velocity of 40 mm/s while the gastrocnemius was stimulated with a frequency sufficient to induce full tetanic fusion (100 Hz). Contractions were repeated once every 20 s to avoid inducing fatigue (see FIG. 6).
After the force measurements described above, animals were sacrificed by cervical dislocation and the skeletal muscle and the heart (minus the atria) were collected, flash-frozen in isopentane pre-cooled with liquid nitrogen and stored at −80° C. 12 μm sections from a limb muscle (tibialis anterior) were prepared with a cryotome; multiple serial slides were prepared, containing sections from at least three different levels. The same procedure was used to prepare heart transverse sections.
The amount of the neutrophil and macrophage infiltration was determined in serial sections of skeletal muscle prepared as described above, which were fixed and then stained via immunofluorescence with an anti Ly6G and an anti F4/80 antibody (AbCam, ab25377 and ab6640, for neutrophils and macrophages, respectively). The amount of infiltrate was assessed as percentage of fluorophore-positive pixel over the total area of the sections, using Image-J software (FIGS. 7A and B).
The amount of reactive oxygen species (ROS) present in the skeletal muscle tissue sections was assessed using dihydroethidium (DHE, Sigma) as a fluorescent probe in freshly cut tissue sections as described by Menazza et al., et al., Hum. Mol. Genet. 2010, 19, 4207-4215. In the presence of ROS, DHE is oxidized forming ethidium, which then can bind to nuclear DNA and emit red fluorescence. The amount of the red fluorescence was then measured from at least 20 random fields per each section using the Metafluor software (Leica), and data were averaged per field (FIG. 7C).
The percentage of fibrotic tissue in skeletal muscle was determined by picrosirius red staining. […] Whole images of at least three sections per muscle sample were then acquired with a bright field microscope and then analyzed with Image-J software, in order to measure the percentage of fibrotic (red) areas with respect to the total surface (FIG. 7D).

[3] = test system: cytochrome P450 (1A2, 2B6, 2C8, 2C9, 2C19, 2D6, 3A4); 44 enzymes, receptors, ion channels and transporters; 13 common transporters; 7 cardiac ion channel …; experiment: Off-target profile (cytochrome P450, Safety Screen panel, Transporter panel, Cardiac Ion Channel panel); conditions: all assays: CYP at 30 μM, panels at 10 μM, cardiac ion channels up to 300 μM
Experimental: Assessment of the off-target profile of Compound 1 using standardized commercially available methods (available through contract research organizations such as Eurofins Panlabs Inc, (https://www.eurofinsdiscoveryservices.com/services/in-vitro-assays/) or Evotec SE, (https://www.evotec.com/en/execute/integrated-pre-clinical-development/adme)).
The potential for off-target promiscuity in vivo was evaluated in vitro using the following assays:
Inhibition of cytochrome P450 activity (30 μM single concentration; 1A2, 2B6, 2C8, 2C9, 2C19, 2D6, 3A4)
Eurofins Discovery Safety Screen panel of 44 enzymes, receptors, ion channels and transporters (percentage inhibition at 10 μMconcentration).
Eurofins Transporter Protein Screen panel of 13 common transporters (percentage inhibition at 10 μM concentration).
Aptuit Cardiac Ion Channel panel of 7 targets (automated patch clamp assay; concentration 0 up to 300 μM).

Compound: NC/C(=C\F)C1Cc2ccccc2O1 (single isomer, unassigned; (-)) [PXS-5131, (−)-(E)-2-(2,3-Dihydrobenzofuran-2-Yl)-3-Fluoroprop-2-En-1-Amine Hydrochloride]
- pharmacokinetic profile [1]: inferior to Compound 1
- neutrophil influx in the tibialis anterior muscle ([2]; p<0.0001, FIG. 7A): significantly reduces
- macrophage influx in the tibialis anterior muscle ([2]; p<0.0001, FIG. 7B): significantly reduces
- reactive oxygen species in the tibialis anterior muscle ([2]; p<0.0001, FIG. 7C): significantly reduces
- fibrosis (picrosirius red staining) in the tibialis anterior muscle ([2]; p<0.0001, FIG. 7D): significantly reduces
- loss of force caused by eccentric contractions in the gastrocnemius muscle ([2]; p<0.05, FIG. 6): helps protect against the loss of force

Compound: N#Cc1ccc(OC/C(=C/F)CN)cc1 [Compound 1, (E)-4-((2-(aminomethyl)-3-fluoroallyl)oxy) benzonitrile]
- off-target profile [3]: favorable off-target profile
